Measurements as given in US20090328239A1, “BLOOD VESSEL IMAGING AND USES THEREFOR” (Bio Tree Systems, Inc., priority 2006, published 2009).

Key:
[1] = system: human non-small cell lung tumor cell line (A549) xenotopic tumor; experiment: Tumor volume in xenotopic tumor model (caliper measurement); format: in vivo, mice (SCID); details: 0.5 mg/kg i.p. twice a week; end-point 1.5 weeks after initial treatment; vs saline/PBS control
Procedure: A tumor model can be generated by inoculating human non-small cell lung tumor cell line (A549 from ATCC, Inc.) subcutaneously in immunodeficient mice (SCID). SCID male mice (6-8 weeks old from Charles River Inc.) are inoculated subcutaneously in the lower back with a suspension of 1×10^6 human lung tumor cells (A549) in 0.2 ml of PBS. All mice are fed normal chow diet throughout the duration of the experiment. All mice weights are measured throughout the experiment. Tumor size is measured with calipers twice-a-week and tumor volume is calculated using the formula Length^2×Width×0.52. All mice are randomized into two treatment groups (approximately 10 mice per group) when the median tumor volume reaches approximately 500 mm^3. The treatment groups can be treated according to the following schedule using intraperitoneal (i.p.) administration of either a control composition or an anti-angiogenic compound. […]
(§1) Xenotopic mouse models obtained as described in Example 2 were treated with either a control solution of saline/PBS or an anti-angiogenic preparation of Avastin® at 0.5 mg/kg/i.p. as described above. At the end-point, vascular casts were prepared as described in Example 3 above and analyzed for two treated mice (both treated with Avastin® at 0.5 mg/kg/i.p.) and one control mouse. […]

[2] = system: human non-small cell lung tumor cell line (A549) xenotopic tumor; experiment: Vascular cast micro-CT analysis of blood vessel diameter distribution in xenotopic tumor model; format: in vivo, mice (SCID); details: 0.5 mg/kg i.p., vascular casts
Procedure: A tumor model can be generated by inoculating human non-small cell lung tumor cell line (A549 from ATCC, Inc.) subcutaneously in immunodeficient mice (SCID). SCID male mice (6-8 weeks old from Charles River Inc.) are inoculated subcutaneously in the lower back with a suspension of 1×10^6 human lung tumor cells (A549) in 0.2 ml of PBS. All mice are fed normal chow diet throughout the duration of the experiment. All mice weights are measured throughout the experiment. Tumor size is measured with calipers twice-a-week and tumor volume is calculated using the formula Length^2×Width×0.52. All mice are randomized into two treatment groups (approximately 10 mice per group) when the median tumor volume reaches approximately 500 mm^3. The treatment groups can be treated according to the following schedule using intraperitoneal (i.p.) administration of either a control composition or an anti-angiogenic compound. For example, different levels of an anti-angiogenic compound can be used and the results compared to a control group that is not treated with an anti-angiogenic compound (e.g., Avastin® available from Genentech, South San Francisco, Calif.). For example:
At the end-point, all mice are anesthetized and systemically perfused with a casting agent.
Perfusion with a casting agent, Mercox (available from Ladd Research, Williston, Vt.) can be performed as follows. An initial anticoagulation step for each animal is performed using an i.v. injection of heparin (10,000 U/ml, 0.3 cc/mouse). After 30 minutes, the animals are anesthetized. Each animal's heart is cannulated and the animal perfused with warm physiological saline at physiological pressure (with an open vein draining the organ or with an open vena cava). Perfusion is continued until the organ or animal is clear of blood. Mercox monomer is filtered through a 0.5 μm filter and a casting resin is prepared by mixing 8 ml Mercox, 2 ml methylmethacrylate, and 0.3 ml catalyst. The resin is infused through the same cannula until the onset of polymerization (the resin changes color to brown and emits heat, ˜10 min). The organ or animal is carefully immersed in a 60° C. water bath for 2 hours (or overnight in a sealed container). […] The resulting cast can be analyzed to identify one or more structural characteristics of interest.
as §1

Avastin®: known monoclonal antibody against vascular endothelial growth factor (VEGF), angiogenesis inhibitor available from Genentech
Mean tumor volumes, treated vs control group at the end of the experiment [1]: did not differ significantly | Vessel population ratio between large (approximately 147-161 μm) and middle (approximately 33-77 μm) size vessels (FIG. 3) ([2]; treated vs control animals): decreased | Vessel population ratio between small (approximately 21-35 μm) and middle (approximately 35-49 μm) size vessels (FIG. 2) ([2]; treated vs control animals): decreased | Percentage of middle diameter sized vessels in treated tumors vs untreated tumors (FIG. 1) ([2]; two treated mice vs one control mouse): higher percentage | Reduction in small diameter sized vessels in treated tumors vs untreated tumors (FIG. 1) ([2]; two treated mice vs one control mouse, bins 13.8 μm wide): 20%
